Experimental data published in article PMC6909939, “Study on the Interactions Between Caffeoylquinic Acids With Bovine Serum Albumin: Spectroscopy, Antioxidant Activity, LC-MS^n, and Molecular Docking Approach” (Frontiers in Chemistry, 2019).
Several values for one entry are separate records, joined by “and”; a condition that tells them apart may be missing. Equal entries are not always repeated. Where two headings read alike, the source gives them in different places.

Legend:
[1] = target: T1, bovine serum albumin (BSA) (Bos taurus, UniProt P02769); assay: Fluorescence quenching of BSA by CQAs (Stern-Volmer, double-log, Van't Hoff); assay type: binding; details: for ΔH / ΔS: 300-310 K; for Kd: read-out: Ka (converted); for λa-λj (shift of BSA fluorescence emission): CQA 0 to 5.0 × 10^−6 M
T1 construct: purchased AMRESCO
T1 sequence (P02769 25-607): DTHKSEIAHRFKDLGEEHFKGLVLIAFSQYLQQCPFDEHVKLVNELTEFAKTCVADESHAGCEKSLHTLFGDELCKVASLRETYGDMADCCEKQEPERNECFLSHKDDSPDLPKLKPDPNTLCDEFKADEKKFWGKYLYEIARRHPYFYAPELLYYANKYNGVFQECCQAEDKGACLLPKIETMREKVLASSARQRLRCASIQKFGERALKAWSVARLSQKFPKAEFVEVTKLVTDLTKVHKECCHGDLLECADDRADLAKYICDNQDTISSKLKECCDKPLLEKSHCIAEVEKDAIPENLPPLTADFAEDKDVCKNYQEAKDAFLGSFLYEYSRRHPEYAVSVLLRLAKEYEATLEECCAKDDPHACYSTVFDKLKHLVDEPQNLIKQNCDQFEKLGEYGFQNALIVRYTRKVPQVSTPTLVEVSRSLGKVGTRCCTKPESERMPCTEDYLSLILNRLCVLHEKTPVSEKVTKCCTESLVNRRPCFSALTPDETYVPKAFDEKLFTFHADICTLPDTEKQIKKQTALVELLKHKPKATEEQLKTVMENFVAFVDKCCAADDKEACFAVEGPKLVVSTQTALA
Procedure: Fluorescence analysis was determined with the LS-45 fluorophotometer (PerkinElmer, USA). […] The synchronous fluorescence spectrum was recorded at Δλ = 15/60 nm at 300 K. The concentration of BSA was set as 0.2 × 10^−6 M, and the concentrations of CQAs were set as 0~5.0 × 10^−6 M by successive additions. The 3D fluorescence spectrum of BSA (0.2 × 10^−6 M) and the BSA-drug (10:1 mol ratio of protein to ligand) complexes were determined at 200–350 nm in 5 nm increments, and the emission spectrum was set as between 200 and 500 nm.
Static and dynamic quenching were two kinds of quenching mechanisms. Both of them followed the equation of Stern-Volmer (Tang and Jia, [2013]): […]
where F0 and F were the fluorescence intensities of BSA with or without CQAs, respectively; KSV were the Stern-Volmer quenching constants; [Q] was the concentration of CQAs.
Binding constants and binding sites could be determined by double logarithmic curve equation (Hemmateenejad et al., [2012]):
(2) logF0-F/F=logKa+nlog[Q]
where F0 and F were the fluorescence intensities of BSA with or without CQAs, respectively; [Q] was the concentrations of CQAs; Ka was the binding constants and n was the number of binding sites.
The binding force between drugs and BSA was non-covalent interaction, like hydrogen-bond interaction, electrostatic forces, hydrophobic effects and Van der Waals forces (Cheng et al., [2015]). The binding parameters could be employed to determine the types of binding forces. The value of ΔH (enthalpy change) and ΔS (entropy changes) could be determined by Van't Hoff equation: […]
where Ka were the binding constants, R were the gas constants and T was the temperatures. Free energy changes (ΔG) could be determined by the following equation: […]

BSA = target: T2, BSA (Bos taurus, UniProt P02769); assay: CD measurement of BSA secondary structure (α-helix content); design: species or system bovine
T2 construct: purchased AMRESCO
T2 sequence (P02769 25-607): as above
Procedure: The J-815 automatic recording spectropolarimeter (Japan) equipped with 1.0 mm path length quartz cuvettes was employed to determine the CD spectrum of BSA and CQAs-BSA. All the CD spectra were recorded from 190 to 250 nm at 300 K, and the scanning speeds were all set as 50 nm·min^−1. The concentration of BSA and CQAs was 2.0 × 10^−6 and 10.0 × 10^−6 M, respectively. Each spectrum was scanned for successive three times and corrected by corresponding buffer solution.
Far-UV CD spectrum could monitor the secondary structures changes of BSA. To further study the interaction of CQAs and BSA and accurately detect the changes of the secondary structures of BSA, CD spectra of BSA was performed in with or without CQAs in different solvent systems.

bovine serum albumin = details: ref Li et al., 2010; cited from earlier work

Question: Which Fluorescence quenching rate [1] does the source give for `O=C(C=Cc1ccc(O)c(O)c1)OC1CC(O)(C(=O)O)CC(O)C1O` (stereo not shown) [3-CQA, 3-O-caffeoylquinic acid] here?
Answer: 40.14% and 32.93%

Question: What about the ΔG ([1]; H2O, 305 K) of the same compound?
Answer: -35.71 kJ/mol

Question: What about the ΔG ([1]; H2O, 310 K) of the same compound?
Answer: -33.68 kJ/mol

Question: And the ΔG ([1]; PBS, 310 K)?
Answer: -33.81 kJ/mol

Question: And the ΔG ([1]; Tris-HCl, 300 K)?
Answer: -39.74 kJ/mol

Question: And the “increase of α-helix content of BSA” value (BSA; Tris-HCl buffer)?
Answer: 5.15%

Question: Which results are given for `O=C(C=Cc1ccc(O)c(O)c1)OC1C(O)CC(O)(C(=O)O)CC1O` (stereo not shown) [4-CQA, 4-O-caffeoylquinic acid]?
Answer: Fluorescence quenching rate ([1]; H2O): 30.99%; ΔH ([1]; H2O): -251.26 kJ/mol; ΔS ([1]; H2O): -705.46 J·mol^−1·k^−1; KSV ([1]; H2O, 300 K): 83600 L/mol; n (number of binding sites) ([1]; H2O, 300 K): 1.3458; ΔG ([1]; H2O, 300 K): -39.62 kJ/mol; Kd ([1]; H2O, 300 K): 173 nM; KSV ([1]; H2O, 305 K): 60500 L/mol; n (number of binding sites) ([1]; H2O, 305 K): 1.3177; ΔG ([1]; H2O, 305 K): -36.09 kJ/mol; Kd ([1]; H2O, 305 K): 347 nM; KSV ([1]; H2O, 310 K): 57700 L/mol; n (number of binding sites) ([1]; H2O, 310 K): 1.1102; ΔG ([1]; H2O, 310 K): -32.57 kJ/mol; Kd ([1]; H2O, 310 K): 4520 nM; λa-λj (shift of BSA fluorescence emission) ([1]; H2O): -5.5 nm; Fluorescence quenching rate ([1]; PBS): 22.65%; ΔH ([1]; PBS): -271.59 kJ/mol; ΔS ([1]; PBS): -774.09 J·mol^−1·k^−1; KSV ([1]; PBS, 300 K): 132900 L/mol; n (number of binding sites) ([1]; PBS, 300 K): 1.3138; ΔG ([1]; PBS, 300 K): -39.36 kJ/mol; Kd ([1]; PBS, 300 K): 175 nM; KSV ([1]; PBS, 305 K): 98000 L/mol; n (number of binding sites) ([1]; PBS, 305 K): 1.2398; ΔG ([1]; PBS, 305 K): -35.49 kJ/mol; Kd ([1]; PBS, 305 K): 532 nM; KSV ([1]; PBS, 310 K): 60000 L/mol; n (number of binding sites) ([1]; PBS, 310 K): 1.0835; ΔG ([1]; PBS, 310 K): -31.62 kJ/mol; Kd ([1]; PBS, 310 K): 5920 nM; λa-λj (shift of BSA fluorescence emission) ([1]; PBS): -4 nm; Fluorescence quenching rate ([1]; Tris-HCl): 35.83%; binding affinity change (times) when temperature rises from 300 to 310 K ([1]; Tris-HCl): 37.4; ΔH ([1]; Tris-HCl): -217.90 kJ/mol; ΔS ([1]; Tris-HCl): -588.56 J·mol^−1·k^−1; KSV ([1]; Tris-HCl, 300 K): 189400 L/mol; n (number of binding sites) ([1]; Tris-HCl, 300 K): 1.4214; ΔG ([1]; Tris-HCl, 300 K): -41.33 kJ/mol; Kd ([1]; Tris-HCl, 300 K): 30.1 nM; KSV ([1]; Tris-HCl, 305 K): 120400 L/mol; n (number of binding sites) ([1]; Tris-HCl, 305 K): 1.2871; ΔG ([1]; Tris-HCl, 305 K): -38.40 kJ/mol; Kd ([1]; Tris-HCl, 305 K): 238 nM; KSV ([1]; Tris-HCl, 310 K): 47100 L/mol; n (number of binding sites) ([1]; Tris-HCl, 310 K): 1.2434; ΔG ([1]; Tris-HCl, 310 K): -35.45 kJ/mol; Kd ([1]; Tris-HCl, 310 K): 1130 nM; λa-λj (shift of BSA fluorescence emission) ([1]; Tris-HCl): 3.5 nm; increase of α-helix content of BSA (BSA; H2O): 4.84%; increase of α-helix content of BSA (BSA; PBS buffer): 1.97%; increase of α-helix content of BSA (BSA; Tris-HCl buffer): 14.14%

Question: Which results are given for `O=C(/C=C/c1ccc(O)c(O)c1)O[C@@H]1C[C@](O)(C(=O)O)C[C@@H](O)[C@H]1O` [5-CQA, 5-O-caffeoylquinic acid]?
Answer: binding constant (bovine serum albumin): higher than that of caffeic acid; Fluorescence quenching rate [1]: 35.34% and 32.09%; n (number of binding sites) [1]: 0.9251; ΔG ([1]; Tris-HCl, 300 K): -42.59 kJ/mol; ΔG ([1]; Tris-HCl, 305 K): -38.71 kJ/mol; ΔG ([1]; Tris-HCl, 310 K): -34.83 kJ/mol; increase of α-helix content of BSA (BSA; H2O): 0.69%; increase of α-helix content of BSA (BSA; PBS buffer): 0.08%; increase of α-helix content of BSA (BSA; Tris-HCl buffer): 8.16%
